Six molecules from PMC13053910, “Covalent Protein Inhibitors via Tyrosine and Tryptophan Conjugation with Cyclic Imine Mannich Electrophiles” (Angewandte Chemie (International Ed. in English), 2026) can be followed below.

The nature of data set [1]: Reaction of cyclic imine Mannich or sulfur fluoride electrophiles with Ac-Tyr-NHMe (HPLC, LC/MS). Type of data set: physicochemical. Here is the method: To identify an appropriate warhead, we synthesized or purchased a collection of cyclic imines and incubated them with N‐acetyl‐L‐tyrosine methylamide (Ac‐Tyr‐NHMe) in PBS pH 7 at 37 °C (Table 1). The reactivity was quantified by UV integration on HPLC with LC/MS confirmation of product identity (Figure S1). […] The hydrolysis kinetics of imine 2 were characterized at pD 6 and 7.5 by NMR (Figure S3). […] The Mannich reaction mechanism involves a charged iminium intermediate, and the reaction is frequently catalyzed by Bronsted acids.^[ [36], [37] ^]
Figure 2 Second‐order rate constants for select cyclic imines and a sulfonyl fluoride with aromatic nucleophiles. Reactions were conducted under pseudo‐first‐order conditions with an excess of one reactant, as indicated. The reduction in the concentration of the limiting reactant was measured at various time points by HPLC analysis.
Figure S2: Second order rate constant determination. Reaction of (A) imine 1 (5 mM) with N-Ac-Tyr-NHMe (100 mM) at 37 °C or (B) at R.T. (C) imine 2 (5 mM) with N-Ac-Tyr-NHMe (100 mM) at 37 °C (D) imine 1 (5 mM) with indole-3-butyrate (100 mM) at 37 °C (E) imine 1 (10 mM) with 1 mM 1H-pyrrole-1-propionate (F) iminium 5 (5 mM) with N-Ac-Tyr-NHMe (100 mM) at 37 °C (G) imine 4 (5 mM) with N-Ac-Tyr-NHMe (100 mM) at 37 °C. (H) imine 11 (5 mM) with N-Ac-Tyr-NHMe (100 mM) at 37 °C. (I) imine 13 (5 mM) with N-Ac-Tyr-NHMe (100 mM) at 37 °C.
5.1 General procedure for determination of second order rate constants N-acetyl-l-tyrosine methyl amide (Ac-Tyr-NHMe) (100 mM) was incubated with 5 mM imine 1 in PBS (pH 7) at 37 °C or R.T..

A further data set has as its target T1, eDHFR wt (Escherichia coli, UniProt P0ABQ4).
T1 construct: made in house; host or cells: E. coli (BL21 CodonPlus RIL or Rosetta 2), pET-28b(+)
The experiment in a line: Covalent labeling of eDHFR wild type by LC/MS. Type of data set: binding, E. coli. Particulars: 10 µM protein, 10 µM compound, overnight, 37 °C.

Data set [2] in a line: Stability of warheads and inhibitors (solid, PBS, hydrolysis). Type of data set: physicochemical. Here is the method:
(§1) To be suitable for chemical probe and therapeutic applications, the warhead should show good stability. In general, we found the iminolactam warheads to be quite stable. Compound 1 was stable as a solid at room temperature for over 3 months. […] After 24‐h in aqueous buffer, compounds were treated with sodium cyanoborohydride. […] The synthetic strategy of in situ formation of imines by periodate treatment was pursued to avoid concerns of warhead reactivity with the ligand itself to either the peptide backbone or the phenoxyphenyl aryl group. This appears to have been unnecessary, at least for the iminolactam warhead. […] The more reactive ester imine may be forming semi‐stable cyclized products with the amide backbone, which have been observed previously with peptide aldehydes.^[ [51], [52] ^] Due to these issues, we selected compound P1b for further characterization.

The nature of data set [3]: Stability in bovine serum-containing cell media (LC/MS). Type of data set: in vitro ADME. Conditions: 20 µM, DMEM with 15% FBS, 24 h, 37 °C. The protocol: as §1
Figure S17. Stability of cyclic imine inhibitors to serum-containing cell culture media. […] The protein fraction was then precipitated with addition of 2 volumes of 1:1 EtOH:acetonitrile and overnight incubation at -20 °C. Samples were centrifuged 16,000 g for 30 minutes. Supernatants were filtered through a 0.5 micro spin filter and evaporated with a speed vacuum. The compounds were resuspended in PBS and analzyed by LC/MS. […] Overlaid spectra of UV at 215 nm are shown and are representative of 3 replicates.

The target of a further data set is T2, eDHFR L28W (Escherichia coli, UniProt P0ABQ4, L28W).
T2 construct: made in house; host or cells: E. coli (BL21 CodonPlus RIL or Rosetta 2), pET-28b(+)
The experiment in a line: Covalent labeling of eDHFR L28W by LC/MS. Particulars: 10 µM protein, 10 µM compound, overnight, 37 °C. Type of data set: binding, E. coli. The text has this:
(§2) Similarly, we prepared eDHFR tyrosine and tryptophan mutants at position 28 to assess labeling with TMP‐Im (Figure 3b). […] We conducted trypsin digestion of the labeled L28Y protein and localized the modification to the intended tyrosine by MS/MS fragmentation (Figure S9A). To assess selectivity over thiols, we tested labeling of the cysteine mutant. […] This labeling was reversed with GSH treatment, which is consistent with the reversibility of thioaminal formation (Figure S10).
(§3) Reactions with thiol mutant L28C were conducted in the presence of 5 mM glutathione and 5 mM TCEP. The observed mass differences of labeled and unlabeled proteins agree with the expected mass change of 428 Da.

The target of a further data set is T3, eDHFR L28C (Escherichia coli, UniProt P0ABQ4, L28C).
T3 construct: made in house; host or cells: E. coli (BL21 CodonPlus RIL or Rosetta 2), pET-28b(+)
In words: Covalent labeling of eDHFR L28C by LC/MS. Type of data set: binding, E. coli.
From the text: as §2, §3
Figure S10. Ligand directed labeling in the presence of thiols. A) TMP-Im (10 µM) was incubated with eDHFR L28Y (10 µM) overnight at RT in the absence (left) or presence of 5 mM GSH with 5 mM TCEP. B) TMP-Im (10 µM) was incubated with eDHFR L28C (10 µM) overnight in the absence (left and center) or presence of 5 mM GSH with 5 mM TCEP. For the center panel, after the labeling reaction, GSH (5 mM) was added and allowed to incubated overnight.

In a further data set the target is T4, eDHFR L28Y (Escherichia coli, UniProt P0ABQ4, L28Y).
T4 construct: made in house; host or cells: E. coli (BL21 CodonPlus RIL or Rosetta 2), pET-28b(+)
In words: Covalent labeling of eDHFR L28Y by LC/MS. Type of data set: binding, E. coli.
From the text: as §2, §3
Figure S10. Ligand directed labeling in the presence of thiols. […] B) TMP-Im (10 µM) was incubated with eDHFR L28C (10 µM) overnight in the absence (left and center) or presence of 5 mM GSH with 5 mM TCEP. For the center panel, after the labeling reaction, GSH (5 mM) was added and allowed to incubated overnight.

Data set [4] can be described thus: Reaction of imine 1 with indole-3-butyrate (tryptophan mimic), rate constant. Type of data set: physicochemical. Conditions: imine 5 mM, indole-3-butyrate 100 mM, 37 °C. Here is the method:
(§4) Figure 2 Second‐order rate constants for select cyclic imines and a sulfonyl fluoride with aromatic nucleophiles. Reactions were conducted under pseudo‐first‐order conditions with an excess of one reactant, as indicated. The reduction in the concentration of the limiting reactant was measured at various time points by HPLC analysis. Rates of imine 1 with N‐Ac‐Tyr‐NMe, indole‐3‐butyric acid, and 1H‐pyrrole‐1‐propionic acid and compounds 4, 11, and 13 with N‐Ac‐Tyr‐NMe were measured. […]
(§5) To assess the selectivity for tyrosine side chains, we tested the reactivity of 1 with additional compounds, including β‐mercaptoethanol, imidazole, isopropanol, n‐butylamine, propionic acid, 3‐methyl indole, and N‐ethyl pyrrole. […] While partially stable under LC/MS conditions, the N,S‐thioaminal product is readily reversible.^[ [41] ^] […] We determined a second‐order rate constant of 5.9 × 10^−2 M^−1 s^−1 for the reaction of 1 with 1H‐pyrrole‐1‐propionate (Figures 2 and S2). […]

For the next data set, the target named is T5, CBX8 chromodomain (ChD) (Homo sapiens, UniProt Q9HC52).
T5 construct: CBX chromodomain constructs (addgene plasmid #25158 (CBX2), and #62514 (CBX8, provided by Cheryl Arrowsmith)); 6His; host or cells: E. coli (BL21 CodonPlus RIL or Rosetta 2)
T5 sequence (Q9HC52 11-69 limits assumed): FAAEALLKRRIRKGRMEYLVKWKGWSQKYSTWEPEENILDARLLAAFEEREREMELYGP
The experiment in a line: Non-directed labeling of CBX8 ChD with cyclic imine 1 (mass spectrometry). Type of data set: binding. Conditions: 1 (50 µM), CBX8 ChD (50 µM), 10 h. The source says:
Our interest in this chemistry was to improve inhibitors of the chromodomains (ChD) of the CBX family of epigenetic proteins, which have proven challenging to inhibit selectively or with drug‐like small molecules.^[ [47] ^] The CBX ChDs bind a trimethylated lysine (Kme3) side chain on histone tails via cation‐pi interactions with the aromatic cage in the ChD. Our initial hypothesis was that the aromatic cage tryptophan residues would show increased reactivity to Mannich electrophiles, as they function naturally to donate electron density to the electron‐poor methyl groups of Kme3. To test this, 1 (50 µM) was incubated for 10 h with the CBX8 chromodomain (ChD) (50 µM), and labeling was assessed by mass spectrometry (Figure S11).
Figure S11. […] Cyclic imine 1 ([…]) was incubated with 50 µM CBX8 ChD in PBS (pH=7, 0.02% Tween20) buffer at R.T. for 16 hours overnight. Labeled protein was precipitated using cold MeOH:CHCl3 at the ratio of MeOH:CHCl3:Protein = 3:0.5:1, followed with two methanol washes. Protein pellet was air dried after the last wash resuspensed in water containing 0.1% formic acid and 100 mM ammonium acetate. Protein labeling was characterized by LC/MS (Unmodified CBX8 control is indicated in red, and CBX8 labeled with cyclic imine is indicated in green).

Data set [5] can be described thus: Reaction of imine 1 with 1H-pyrrole-1-propionate (pyrrolated lysine mimic), rate constant. Type of data set: physicochemical. Conditions: imine 10 mM, 1 mM 1H-pyrrole-1-propionate. The protocol: as §4, §5
Setting [6] is: electrophile 5 mM, N‐acetyl‐l‐tyrosine methyl amide 100 mM, PBS pH 7, 37 °C.

On to 2-hydroxyquinoxaline [compound 4], for which the “reactivity (t1/2)” value in data set [1] (buffer, pH 7) was determined as 6.1 ± 0.2 h.
In the case of `COc1cc(Cc2cnc(N)nc2N)cc(OC)c1OCCCCN1CCN=CC1=O` [TMP‐Im], the “covalent labeling of eDHFR wild type” value on eDHFR wt was “no labeling”. Besides, the “stability to long‐term incubation in PBS” value in data set [2] (24 h in aqueous buffer, then sodium cyanoborohydride, mass spectrometry) is given as “stability over the 24 h”. In addition, the entries for the “stability in bovine serum‐containing cell media” value in [3] and in [3] (listed as TMP-Im) were “minimal loss of compounds to the precipitated protein fraction or degradation” and “no degradation or loss to the protein fraction”, respectively. Further, the “covalent labeling of eDHFR L28W” value at eDHFR L28W is “covalent labeling”. Also, the “labeling of eDHFR L28C cysteine mutant” value at eDHFR L28C (absence of additional thiols, TCEP as reductant) is on record as “A small amount of labeling”; on eDHFR L28C (in the presence of 5 mM glutathione (GSH) and 5 mM TCEP) it was “no detectable labeled protein”. The “covalent labeling of eDHFR L28Y” value on eDHFR L28Y (10 µM protein, 10 µM compound, overnight, 37 °C) is on record as “covalent labeling”. Besides, the “effect of GSH on labeling of eDHFR L28Y” value at eDHFR L28Y (presence of 5 mM GSH) is given as “only a slight reduction in reaction conversion”.
As to `O=C1C=NC2CCCCC2N1` (stereo not shown) [compound 1], in data set [2] (solid, room temperature), the “stable as a solid at room temperature” value is reported as “over 3 months”. Further, in data set [4], the “second‐order rate constant k2 with indole‐3‐butyrate” value was 0.00011 M⁻¹ s⁻¹. In data set [1] (setting [6]), the “reactivity (t1/2)” value was determined as 8 ± 0.3 h. In addition, the “second‐order rate constant k2 with N‐Ac‐Tyr‐NHMe” value in data set [1] (pseudo‐first‐order conditions, PBS pH 7, 37 °C) came to 0.00024 M⁻¹ s⁻¹. For the same molecule, the “labeling of CBX8 ChD by imine alone” value on CBX8 chromodomain (ChD) is “distribution of unlabeled, singly, doubly, and triply labeled protein indicative of random labeling”. In addition, in data set [5], the “second‐order rate constant k2 with 1H‐pyrrole‐1‐propionate” value amounted to 0.059 M⁻¹ s⁻¹.
Turning to `O=C1C=N[C@H]2CCCC[C@@H]2O1` [compound 2], the “reactivity (t1/2)” value in [1] (electrophile 5 mM, Ac-Tyr-NHMe 100 mM, PBS pH 7, 37 °C, competing hydrolysis) was “∼40 mins ^b)”.
Regarding `O=S1(=O)N=Cc2ccccc21` [compound 11], in data set [1] (setting [6]), the “reactivity (t1/2)” value was 2.4 ± 0.1 h.
As to `O=C(O)c1ccc(OS(=O)(=O)F)cc1` [compound 14, reference compound], the “reactivity (t1/2)” value in [1] (setting [6]) is reported as “∼48 h”.
